These results are taken from patent publication US20260174682A1, “GAMMA-AMINOBUTYRIC ACID DERIVATIVE COMPRISING POLYCYCLIC STRUCTURE, METHOD FOR PREPARING SAME, AND USE THEREOF” (ZHONGSHAN INSTITUTE FOR DRUG DISCOVERY, SIMM, CAS., priority 2022, published 2026).

In general, IC50 refers to the concentration that gives 50% inhibition.

Marks after values point to notes of the source that are not given here. Where only a bound is given, the exact number is not on record here.

The target of data set [1] is T1, human recombinant calcium ion channel Cav2.2/β3/α2δ-1 (Homo sapiens, UniProt P54289).
T1 construct: expressed in transfected cells; host or cells: CHO cells (membranes)
T1 sequence (P54289 25-956 limits assumed): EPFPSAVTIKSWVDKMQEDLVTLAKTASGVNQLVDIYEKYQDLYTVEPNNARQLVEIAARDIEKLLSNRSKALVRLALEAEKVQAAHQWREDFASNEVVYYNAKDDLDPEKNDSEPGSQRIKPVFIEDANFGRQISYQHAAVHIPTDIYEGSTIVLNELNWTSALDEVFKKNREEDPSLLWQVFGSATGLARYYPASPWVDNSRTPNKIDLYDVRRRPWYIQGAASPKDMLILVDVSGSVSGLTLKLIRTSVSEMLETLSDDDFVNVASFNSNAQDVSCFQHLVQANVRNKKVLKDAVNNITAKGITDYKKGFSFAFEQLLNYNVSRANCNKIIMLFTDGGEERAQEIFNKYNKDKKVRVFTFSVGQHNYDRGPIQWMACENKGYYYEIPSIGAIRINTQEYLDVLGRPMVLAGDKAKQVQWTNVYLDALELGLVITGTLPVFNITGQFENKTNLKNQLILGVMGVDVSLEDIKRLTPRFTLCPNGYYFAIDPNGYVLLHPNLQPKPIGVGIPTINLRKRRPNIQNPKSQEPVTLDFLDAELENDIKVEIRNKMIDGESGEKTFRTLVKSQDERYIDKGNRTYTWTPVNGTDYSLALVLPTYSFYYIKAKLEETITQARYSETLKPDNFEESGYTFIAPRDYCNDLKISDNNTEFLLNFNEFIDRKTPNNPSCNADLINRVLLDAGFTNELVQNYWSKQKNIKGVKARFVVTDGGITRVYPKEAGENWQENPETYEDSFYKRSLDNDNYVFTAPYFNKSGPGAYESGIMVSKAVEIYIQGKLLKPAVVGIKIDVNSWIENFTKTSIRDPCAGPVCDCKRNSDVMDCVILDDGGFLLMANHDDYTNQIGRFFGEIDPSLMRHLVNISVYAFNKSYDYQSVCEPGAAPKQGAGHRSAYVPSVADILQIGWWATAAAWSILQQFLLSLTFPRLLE
T1 sequence (P54289 957-1103 partner limits assumed): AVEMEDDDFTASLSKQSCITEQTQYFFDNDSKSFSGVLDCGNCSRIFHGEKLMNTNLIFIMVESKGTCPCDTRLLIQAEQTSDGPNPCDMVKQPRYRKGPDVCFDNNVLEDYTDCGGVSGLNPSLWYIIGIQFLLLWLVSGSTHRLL
T1 sequence (Q00975 whole entry partner): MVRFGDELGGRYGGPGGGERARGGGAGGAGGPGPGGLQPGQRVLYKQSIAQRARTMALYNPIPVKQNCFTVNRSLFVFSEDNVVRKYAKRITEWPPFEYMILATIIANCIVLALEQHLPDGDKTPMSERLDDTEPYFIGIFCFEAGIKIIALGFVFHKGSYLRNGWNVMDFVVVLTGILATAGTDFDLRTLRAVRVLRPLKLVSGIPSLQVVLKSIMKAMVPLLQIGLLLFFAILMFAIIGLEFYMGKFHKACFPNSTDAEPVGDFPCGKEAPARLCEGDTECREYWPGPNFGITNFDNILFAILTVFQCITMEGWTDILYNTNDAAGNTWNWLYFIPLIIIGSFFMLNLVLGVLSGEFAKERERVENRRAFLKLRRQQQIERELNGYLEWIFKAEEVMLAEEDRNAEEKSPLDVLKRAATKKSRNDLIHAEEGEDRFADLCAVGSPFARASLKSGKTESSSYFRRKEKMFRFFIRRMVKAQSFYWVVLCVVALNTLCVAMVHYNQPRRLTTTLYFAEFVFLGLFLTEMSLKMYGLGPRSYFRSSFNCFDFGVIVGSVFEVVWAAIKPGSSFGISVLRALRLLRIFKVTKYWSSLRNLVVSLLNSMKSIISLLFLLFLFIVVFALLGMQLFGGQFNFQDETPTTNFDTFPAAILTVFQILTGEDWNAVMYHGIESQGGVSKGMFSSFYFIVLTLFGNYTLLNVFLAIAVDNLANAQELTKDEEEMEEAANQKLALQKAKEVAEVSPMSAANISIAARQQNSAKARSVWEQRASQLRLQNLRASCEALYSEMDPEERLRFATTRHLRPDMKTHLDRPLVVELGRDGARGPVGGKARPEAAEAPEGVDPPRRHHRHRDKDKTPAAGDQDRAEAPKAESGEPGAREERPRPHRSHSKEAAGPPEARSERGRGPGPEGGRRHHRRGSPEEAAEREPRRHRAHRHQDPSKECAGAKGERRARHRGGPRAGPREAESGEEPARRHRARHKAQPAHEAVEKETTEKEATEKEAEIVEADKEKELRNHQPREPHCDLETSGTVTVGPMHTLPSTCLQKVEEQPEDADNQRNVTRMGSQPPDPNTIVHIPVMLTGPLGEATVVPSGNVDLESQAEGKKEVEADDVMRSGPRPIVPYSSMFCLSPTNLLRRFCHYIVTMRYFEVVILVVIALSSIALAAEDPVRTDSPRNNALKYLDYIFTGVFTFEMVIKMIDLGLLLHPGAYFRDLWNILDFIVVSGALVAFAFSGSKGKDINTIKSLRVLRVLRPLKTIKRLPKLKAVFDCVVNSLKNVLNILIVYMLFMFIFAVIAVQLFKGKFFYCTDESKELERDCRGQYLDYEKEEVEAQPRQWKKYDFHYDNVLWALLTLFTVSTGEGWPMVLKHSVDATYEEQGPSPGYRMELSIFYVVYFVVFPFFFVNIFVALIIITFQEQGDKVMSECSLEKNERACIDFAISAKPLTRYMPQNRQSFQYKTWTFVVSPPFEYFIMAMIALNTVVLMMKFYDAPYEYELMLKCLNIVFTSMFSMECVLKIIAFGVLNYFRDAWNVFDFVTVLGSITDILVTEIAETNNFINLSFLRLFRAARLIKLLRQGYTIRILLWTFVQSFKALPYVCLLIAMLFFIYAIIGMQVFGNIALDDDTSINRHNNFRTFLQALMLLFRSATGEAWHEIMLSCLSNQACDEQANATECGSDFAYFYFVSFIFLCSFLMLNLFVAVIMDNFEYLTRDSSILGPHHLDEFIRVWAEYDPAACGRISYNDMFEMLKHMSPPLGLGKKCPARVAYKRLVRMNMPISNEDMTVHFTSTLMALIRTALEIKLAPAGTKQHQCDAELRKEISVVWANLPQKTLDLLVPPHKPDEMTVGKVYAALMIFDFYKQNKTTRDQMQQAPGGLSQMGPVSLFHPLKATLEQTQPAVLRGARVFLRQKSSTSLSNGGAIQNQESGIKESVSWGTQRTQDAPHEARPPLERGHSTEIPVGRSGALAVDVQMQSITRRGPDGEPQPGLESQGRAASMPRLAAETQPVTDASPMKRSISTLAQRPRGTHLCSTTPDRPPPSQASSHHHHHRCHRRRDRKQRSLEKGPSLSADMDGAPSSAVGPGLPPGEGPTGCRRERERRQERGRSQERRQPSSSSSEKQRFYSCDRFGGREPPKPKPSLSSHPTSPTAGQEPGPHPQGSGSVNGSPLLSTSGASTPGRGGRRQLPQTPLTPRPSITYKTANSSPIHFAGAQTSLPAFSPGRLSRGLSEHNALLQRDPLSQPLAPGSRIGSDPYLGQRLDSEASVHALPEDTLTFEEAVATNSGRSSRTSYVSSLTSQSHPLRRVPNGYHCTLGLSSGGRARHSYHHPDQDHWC
T1 sequence (P54284 whole entry partner): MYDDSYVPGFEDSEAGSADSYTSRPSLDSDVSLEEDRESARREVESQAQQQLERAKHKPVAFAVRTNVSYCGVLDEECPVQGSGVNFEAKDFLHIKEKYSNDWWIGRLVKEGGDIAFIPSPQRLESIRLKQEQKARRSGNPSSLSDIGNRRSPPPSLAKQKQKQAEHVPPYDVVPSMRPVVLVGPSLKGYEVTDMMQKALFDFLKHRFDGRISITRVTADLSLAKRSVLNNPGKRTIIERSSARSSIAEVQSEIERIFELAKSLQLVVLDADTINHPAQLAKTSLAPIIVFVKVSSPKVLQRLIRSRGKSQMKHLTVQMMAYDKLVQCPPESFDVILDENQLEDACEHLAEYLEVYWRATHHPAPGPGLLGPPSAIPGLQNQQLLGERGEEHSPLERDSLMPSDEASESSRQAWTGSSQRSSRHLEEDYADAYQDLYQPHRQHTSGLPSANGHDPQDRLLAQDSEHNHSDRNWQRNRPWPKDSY
Kind of data set: In vitro binding to human recombinant calcium ion channel Cav2.2/β3/α2δ-1 ([3H]gabapentin competition). As to conditions: inhibition of binding of 5 nM [3H]gabapentin, CHO cell membranes, 25° C., 120 min; read-out: IC50. An excerpt: Example 28 In Vitro Binding of Compounds to Human Recombinant Calcium Ion Channel Cav2.2/β3/α2δ-1
There are four subtypes of the voltage-gated calcium ion channel α2δ subunit, α2δ-1, α2δ-2, α2δ-3 and α2δ-4, in which α2δ-1 is the subtype that mediates chronic neuropathic pain (Field, M. J. et al.; Proc. Natl. Acad. Sci. U.S.A. 2006, 103, 17537-17542). Therefore, the binding strength of a compound to α2δ-1 is a direct indicator for measuring an analgesic effect thereof on the chronic neuropathic pain (Calandre, E. P. et al.; Expert Rev. Neuroether. 2016, 16, 1263-1277).
The in vitro binding strength of the compound of the present application to human recombinant calcium ion channel Cav2.2/β3/α2δ-1 is basically operated according to a reported method (Gee, N. S. et al.; J. Biol. Chem. 1996, 271, 5768-5776; Marais, E. et al.; Mol. Pharmacol. 2001, 59, 1243-1248). CHO cells expressing the human recombinant calcium ion channel Cav2.2/β3/α2δ-1 were used in the test. After routine separation of cell membranes, 3 μg of the cell membranes were added into each well with a modified HEPES/KOH buffer solution (pH 7.4) as a solution of the test system. Then, 5 nM [^3H]gabapentin and the compound to be tested at 6 concentrations (3, 9, 27, 81, 243, and 729 nM) were added, and the test system was incubated at 25° C. for 120 min. Non-specific binding was obtained by replacing the compound to be tested in the above test system with […] gabapentin. After the incubation was completed, the cell membranes were collected by filtration and washed with 50 mM Tris-HCl (pH 7.4), and then the radioactivity of [^3H]gabapentin bound to the cell membranes was tested by a liquid scintillation technology. […] An inhibition rate of the compound of the present application on the binding of the [^3H]gabapentin to the human recombinant calcium ion channel Cav2.2/β3/α2δ-1 was calculated according to the following formula: […]
wherein • I is the radioactivity corresponding to that the compound to be tested and [^3H]gabapentin are simultaneously co-incubated with the human recombinant calcium ion channel Cav2.2/β3/α2δ-1, • I0 is the radioactivity corresponding to co-incubation of [^3H]gabapentin and the human recombinant calcium ion channel Cav2.2/β3/α2δ-1 without adding the compound to be tested into the incubation system, and • IU is the radioactivity corresponding to that 10 μM gabapentin and [^3H]gabapentin are simultaneously co-incubated with the human recombinant calcium ion channel Cav2.2/β3/α2δ-1.
The concentration of the compound to be tested that inhibits 50% of the binding of [^3H]gabapentin to the human recombinant calcium ion channel Cav2.2/β3/α2δ-1 is defined as IC50, and the IC50 is calculated by nonlinear least squares regression analysis using the above inhibition rate (MathIQ™, ID Business Solutions Ltd., UK).

For data set [2], the system named is Sprague Dawley (SD) rat spared nerve injury (SNI) model. The data set is described as follows: Analgesic effect in rat spared nerve injury (SNI) chronic neuropathic pain model. The format is in vivo. As to conditions: SNI rats; for area under the mechanical pain threshold-time curve compared with the vehicle control group / maximum possible effect (% MPE): oral gavage 30 mg/kg (calculated by free base); for maximum possible effect (% MPE) / maximum possible effect (MPE): from AUC of mechanical pain threshold-time curve to 24 h; for maximum possible effect (MPE): oral gavage 10 mg/kg (calculated by free base). On the procedure: Establishment of the SNI model: Surgery was performed according to an aseptic operation method, and various surgical instruments, including scalpels, tweezers, suture needles/threads, surgical cotton, etc., were disinfected before the surgery. Animals were anesthetized by intraperitoneal injection of a Zoletil™ 50 solution at 50 mg/kg and then placed in lateral decubitus positions. After hair in surgical areas of lower bodies of animals was shaved, the animals were disinfected alternately with iodophor and 75% alcohol. The skin was cut at upper edges of left hind limbs, muscles were bluntly separated to expose a sciatic nerve trunk and 3 branches thereof, i.e., a tibial nerve, a common peroneal nerve and a sural nerve. The tibial nerve and the common peroneal nerve were ligated and cut, and the sural nerve was preserved and maintained intact. After the surgery, wounds were sutured layer by layer, the animals were administered with 25% ampicillin (1 mL/kg) through intraperitoneal injection to prevent infection, and routine nursing was performed. In sham group, only the sciatic nerve and the branches thereof were exposed, the nerves were not ligated and cut, and other operations were the same as those in the model group. Detection of a mechanical pain threshold: A Von-frey test fiber was used to detect the mechanical pain threshold of the sole of an operative side of each animal on day 1, day 3 and day 7 after the surgery, respectively. An “up-and-down” method was used as a method of detecting the mechanical pain threshold at the stimulation intensity of 0.4, 0.6, 1, 2, 4, 6, 8, and 15 g. During the test, the test fiber was used to vertically stimulate the site, close to an outer side, in the sole center of the left hind paw of a rat for 6-8 seconds each time at an interval of 5 seconds. A pain response was shown as an obvious paw withdrawal, paw licking, or paw lifting behavior of the animals during each test. From day 11 after the surgery, the animals were placed in an experimental environment for adaptation, wherein the adaptation was performed continuously for 15 min per day for 3 days. On day 13, a basic value of mechanical pain hypersensitivity was detected after the adaptation was completed. The mechanical pain hypersensitivity was expressed by a 50% paw-withdrawal threshold (PWT) according to a calculation formula of 50% PWT (g)=10^xf+kδ, wherein xf is a log value of a fiber test force, k is a tabular value, and δ is an average spacing of the log value of the fiber test force.
Pharmacodynamic evaluation: According to basic threshold detection results on day 13 after the surgery, the animals in the model group without the mechanical pain hypersensitivity, that is, the PWT was greater than 4 g, were excluded, and the other successfully modeled animals were used for a formal test. On day 14 after the surgery, various compound to be tested were newly formulated. Pregabalin was directly dissolved with 0.9% sodium chloride at a dose of 30 mg/kg to obtain a solution at a desired concentration. (±)—I-7, (±)—I-3 and (±)—I-4 p-toluenesulfonate were also completely dissolved with a 0.9% sodium chloride solution at a dose of 30 mg/kg (calculated by free base). The successfully modeled animals were randomly divided into 5 groups with 8 animals in each group. In addition, 7 animals were selected in the sham group. […] The mechanical pain hypersensitivity response of the left hind paw was detected at 1 h, 2 h, 4 h, 6 h, 8 h, 10 h, and 24 h after the administration. Evaluation was performed by using a blind method, and a detection method was the same as above. An area under a mechanical pain threshold-time curve (AUC) was calculated using GraphPad Prism Version 8.0.1 software.

The test system of data set [3] is mouse 6-Hz psychomotor seizure model. The data set is described as follows: Antiepileptic effect in mouse 6-Hz psychomotor seizure model. The format is in vivo. As to conditions: 6-Hz model, C57BL/6 mice, gavage, dose 200 mg/kg. The procedure: A negative vehicle control group, a positive drug control group (pregabalin and gabapentin) and a test group of the compounds of the present application were set. Male C57BL/6 mice with a body weight of 20±2 g were selected. […] After fasted for 12 h, the mice were administered the compounds of the present application or the control drugs, and then subjected to 6-Hz electrical stimulation to induce epilepsy seizure behaviors after a certain time interval (2 h for pregabalin, 1 h for gabapentin, 1 h for levetiracetam, and 3 h for the compounds of the present application). In an induction model, when the stimulation was performed with a Model 4100 stimulator (A-M Systems, the United States), rear necks of the mice were immobilized by hands on a feeding cage, a corneal electrode was moisten with normal saline and allowed to gently contact bilateral corneas of the mice, the electrical stimulator was trod by a foot to give the mice the electrical stimulation with a stimulation parameter of 6-Hz, a one-way square wave of 32 mA, a wave width of 0.2 ms and a stimulation duration of 3 sec, and timing was performed with a stopwatch during the stimulation. After the electrical stimulation was completed, the mice with the seizure behaviors lasting for less than 7 sec were regarded as being protected by the drugs, and the mice with the seizure behaviors lasting for more than 7 sec were regarded as being not protected from the epilepsy by the drugs. Response situations of the animals were observed and recorded, and obtained data were counted to calculate protection rates of the compounds.
Statistical method: The protection rates of different administration groups were separately compared with that of the vehicle control group to carry out a Fisher's exact test.

The subject of another data set is male SD rats. The data set is described as follows: Acute toxicity test on rats. As to conditions: oral gavage 300 mg/kg (calculated by free base).

Description for male SD rats: After adapting to the environment for one week, the SD rats were used in a preliminary acute toxicity test. The compounds were newly formulated on the day of the test. […] After being labeled and weighed, the animals were randomly grouped with 2-4 animals in each group. […] Clinical symptoms of each animal were observed and recorded at 0.5 hours, 1 hour, 2 hours, 4 hours, 6 hours and 24 hours after the administration, respectively. Clinical symptom codes were as follows: 0 no abnormality, 1 mild tremor, 2 unsteady gait, 3 prone position, 4 startle reflex, 5 difficult breathing, 6 righting reflex disappeared, 7 eyelid closure, 8 shortness of breath, and x animal death.

For `NCC1(CC(=O)O)CC2C3C=CC(CC3)C21` (racemic) [(±)-I-6 p-toluenesulfonate], the IC50 in data set [1] came to 300 nM.
`Cc1ccc(S(=O)(=O)O)cc1.NCC1(CC(=O)O)CC2C3C=CC(C3)C21` (racemic) [(±)-I-4 p-toluenesulfonate]: in data set [2], the “area under the mechanical pain threshold-time curve compared with the vehicle control group” value is “significantly improved” and the “maximum possible effect (% MPE)” value is 95.95%.
Consider `CC1(C)C2C=CC1C1C2CC1(CN)CC(=O)O` (racemic) [(±)-I-15 p-toluenesulfonate], for which the IC50 in data set [1] worked out at 580 nM.
On the same count and under the same terms, then `CC1C2CC[C@@H]1[C@H]1C2CC1(CN)CC(=O)O` (mixture of isomers) [(±)-I-16], with 477 nM.
On to `CC1(C)C2CC[C@@H]1[C@H]1C2CC1(CN)CC(=O)O` (mixture of isomers) [(±)-I-14], for which the IC50 in data set [1] stood at 600 nM.
As to `Cc1ccc(S(=O)(=O)O)cc1.NCC1(CC(=O)O)CC2C3CCC(C3)C21` (single isomer, unassigned; (-)) [(−)-I-3 p-toluenesulfonate], the “maximum possible effect (MPE)” value in data set [2] was 30.22%. In addition, the IC50 in data set [1] is over 243 nM.
With `CC1=C(C)C2(C)C3C(CC3(CN)CC(=O)O)C1(C)C2C` (racemic) [(±)-I-8], the IC50 in data set [1] was over 729 nM.
Same read-out and setting: then `NCC1(CC(=O)O)CC2C3CCC(CC3)C21` (racemic) [(±)-I-5], with 450 nM.
Same read-out and setting: as for `CC1C2C=CC1C1C2CC1(CN)CC(=O)O` (racemic) [(±)-I-17 p-toluenesulfonate], the figure is 453 nM.
Same read-out and setting: then `NCC1(CC(=O)O)CC2C1C1C=CC2C12CC2` (racemic) [(±)-I-9 p-toluenesulfonate], with over 729 nM; and `CC1=C(C)C2(C)CC1(C)C1CC(CN)(CC(=O)O)C12` (racemic) [(±)-I-18], with over 729 nM; and `CC1=C(C)C2(C)C3C(CC3(CN)CC(=O)O)C1(C)C2(C)C` (racemic) [(±)-I-19], with over 729 nM.
`CC[C@@H](C(N)=O)N1CCCC1=O` [Levetiracetam]: in data set [3], the “Number of animals with clonic seizures/total number” value is reported as 3/11** and the “Protection rate (%)” value was 72.7 *** %.
Consider `NCC1(CC(=O)O)CC2C3CCC(C3)C21` (racemic) [(±)-I-12], for which the IC50 in data set [1] is over 729 nM.
On the same count and under the same terms, as for `NCC1(CC(=O)O)CC2C1C1CCC2C12CC2` (racemic) [(±)-I-10], the figure is over 729 nM; as for `NCC1(CC(=O)O)CC2C3C=CC(C3)C21` (racemic) [(±)-I-11 p-toluenesulfonate], over 729 nM.
With `NCC1(CC(=O)O)CC2C3C[C@H]([C@H]4C[C@H]34)[C@@H]21` (mixture of isomers) [(±)-I-7], the animal death entry in the data set on male SD rats is listed as “no animals are dead”. For the same compound, in the data set with male SD rats (per animal), the “Observation of clinical symptoms 0.5 h” value is 0, the “Observation of clinical symptoms 2 h” value is on record as 3, the “Observation of clinical symptoms 4 h” value was 0 and the “Observation of clinical symptoms 6 h” value is on record as 0. Also, the “Observation of clinical symptoms 24 h” value with male SD rats (per animal) is on record as 0. Also, the “Observation of clinical symptoms 1 h” value in the data set on male SD rats (per animal, 300 mg/kg) is given as 3. Moreover, in data set [2], the “area under the mechanical pain threshold-time curve compared with the vehicle control group” value is reported as “significantly improved” and the “maximum possible effect (% MPE)” value was 73.63%. The IC50 in data set [1] was 70 nM.
Take `NCC1(CC(=O)O)CC2C3CCC(C3)C21` (racemic) [(±)-I-1]: in data set [1], the IC50 was over 729 nM.
Regarding `NCC1(CC(=O)O)CC2C3CC[C@@H](C3)[C@@H]21` (mixture of isomers) [(±)-I-3], the “maximum possible effect (% MPE)” value in data set [2] is given as 44.80%. In addition, in data set [1], the IC50 turned out to be 15.2 nM.
In the case of `NCC1(CC(=O)O)C[C@@H]2C1C1C=C[C@H]2C1` (mixture of isomers) [(±)-I-2], the 50% inhibitory concentration (IC50) in data set [1] came to 470 nM.
On to `NCC1(CC(=O)O)CC2C3C=CC(C3)C21` (single isomer, unassigned; (-)) [(−)-I-4 p-toluenesulfonate], for which the “maximum possible effect (MPE)” value in data set [2] is listed as 18.53%. In data set [1], the IC50 is over 243 nM.
